Test results published in US20130029970A1 (priority 2009, published 2013).

How the values were obtained:
[1] = system: CFA induced inflammatory pain in the rat; assay: Complete Freund's Adjuvant (CFA) induced inflammatory pain model; type: in vivo; conditions: 60 mg/kg PO
Protocol: In this rat model of inflammatory pain, 100 uL of CFA diluted 1:1 with phosphate buffered saline was injected into the subplantar region of the right hind paw on Day 1. On day 3, test compounds were administered orally and rats were assessed for their reaction to a mechanical stimuli applied via an Analgesy® meter. Injection of CFA increased the rats' reactivity to painful stimuli and this was reflected in a decrease in the amount of pressure they could tolerate prior to withdrawing their paw from the apparatus (hyperalgesia). An anti-hyperalgesic activity of the test compound was denoted by an increase in the amount of pressure they can tolerate prior to withdrawing their paw from the apparatus. The mean±SEM for each treatment group was determined and a Dunnett test was applied for comparison between vehicle and treated groups. Differences were considered significant at P<0.05. (see Bertorelli et al. 1999 Brit Journ Pharmacol 128:1252).

[2] = system: PBQ-induced writhing in the mouse; assay: Phenylbenzoquinone-induced (PBQ) writhing model

Row | Structure (SMILES) | Post CFA PWT (grams) [1] | Number of Writhes ([2]; Dose 3, PO) | Number of Writhes ([2]; Dose 10, PO) | Number of Writhes ([2]; Dose 30, PO)
1 | COc1ccc(C(=O)c2cc3cc(C)n(CCN4CCOCC4)c3s2)c(F)c1 [Compound I-68] | 178.7 ± 24.4 grams | 9.6 ± 2.2 | 5.92 ± 1.55 | 
2 | COc1ccc(C(=O)c2cc3cc(C)n(CCN4CCOCC4)c3s2)c(Cl)c1 [Compound I-70] | 195.7 ± 16.4 grams |  |  | 3.2 ± 1.57
3 | COc1ccc(C(=O)c2cc3cc(C)n(CCCNS(C)(=O)=O)c3s2)c(F)c1 [Compound I-87] | 100.7 ± 11.3 grams |  |  | 17.2 ± 2.5
4 | COc1ccc(C(=O)c2cc3cc(C)n(CCCNS(C)(=O)=O)c3s2)cn1 [Compound I-109] | 132 ± 12.3 grams | 13.3 ± 2.3 | 8.93 ± 2.28 | 5.78 ± 1.75
